# According to US20090105172A1, “Stabilized Aptamers to PSMA and Their Use as Prostate Cancer Therapeutics” (priority 2005, published 2009):
# Columns and labels:
# PSMA NAALADase activity = PSMA NAALADase activity (Homo sapiens, UniProt Q04609); experiment: NAALADase inhibition assay; assay type: biochemical
# Description: These point mutant constructs were assessed for activity in terms of inhibition of PSMA NAALADase activity. The NAALADase assay was performed in 96 well format. PSMA aptamers were serially diluted in 1× reaction buffer (40 mM Tris-HCl, pH 7.4, 0.1 mM ZnSO4, 0.1 mg/in L BSA) in a standard 96 well plate to be tested at a final concentration range from 30 pM to 1 μM. The enzyme was prepared by diluting 30 μL of 100 nM PSMA into 8 mL of reaction buffer, and kept cool on ice. The substrate was prepared by adding 19 μl of NAAG [Glutamate-3,4-^3H], 50.8 Ci/mmol, 19.7 μM (Perkin-Elmer, Wellesley, Mass., NET1082) into 2.2 mL of reaction buffer.
# Following preparation of all reagents, 4 μl of each serially diluted aptamer was added to a separate 96 well plate (the reaction plate). 76 μl of diluted enzyme was added to the corresponding wells containing aptamer. 80 μl of reaction buffer was added to one column of wells to serve as a background control. The diluted substrate and reaction plate were then moved to a room at 37° C. and allowed to equilibrate for 10 minutes. After temperature equilibration, 20 μl of the prepared substrate was added to each well using a 12 channel pipet for a final volume of 100 μl/well, and a final concentration of […] enzyme and 30 nM substrate per well. A column of wells containing enzyme and substrate only was used as a high control. The aptamer/enzyme/substrate reaction was incubated at 37° C. for 15 minutes, and stopped by the addition of 100 μl of quench buffer (100 mM sodium phosphate, pH 7.4, 2 mM EDTA).
# To separate the cleavage products, […] and Glutamate, from the substrate, an AG 1-X8, 200-400 mesh, formate resin (BioRad, Hercules, Calif., # 140-1454) was used. The resin was prepared by forming a 1:1 slurry in H2O, and adding 140 μl per 96 well using a Multiscreen filter plate (Multiscreen, 1.2 μm filter plates (Millipore, Billerica, Mass., # MABVN1250)). […] The plate was sealed and read using a Packard Topcount Microplate Scintillation Counter. […]
# LNCaP cells (PSMA+) = experiment: LNCaP FACS binding assay with fluorescein-labeled aptamers; assay type: cell-based; settings: relative to parent A9
# Description: To prepare aptamers for the FACS assay, PSMA aptamers were serially diluted (0-1 uM) in FACS buffer (1×DPBS w/Ca^++/Mg^++ (Gibco, Carlsbad, Calif.) supplemented with 10 mg/mL salmon sperm DNA & 0.2% Na Azide), in a V-bottom 96 well plate, at the concentrations to be tested. LNCaP and PC-3 cells (ATCC, Manassas, Va.) were harvested with trypsin, and 200,000 cells/well were counted, washed once with 1×DPBS (with Ca^++ and Mg^+) and resuspended in 200 μl of FACS Buffer. The 200 μl of cells in FACS buffer were added to individual wells of a new 96 well plate, pelleted by centrifugation (1300 rpm for 5 minutes), and resuspended in 100 μl of the appropriate concentration of diluted aptamer. FACS buffer, a-PSMA antibody (3C6) (Northwest Biotherapeutics, Bothell, Wash., Cat #: 60-5002) and an irrelevant fluorescein isothiocyanate (“FITC”) mouse IgG1 isotype control antibody (BD Pharmingen, San Diego, Calif., Cat#: 554679) were used as controls. The wells of aptamer/cell mixture were incubated at room temperature for 20-30 minutes.
# After incubation, 180 μl of FACS buffer (plus 10 mg/mL ssDNA, and 0.2% Na Azide) was added to each well to quench the reaction and cells were pelleted by centrifugation.
# Anti-fluorescein/Oregon Green®, rabbit IgG fraction, Alexa Fluor® 488 conjugate (Molecular Probes, Eugene, Oreg., Cat#: A11090) was diluted 1:100 in FACS buffer (100 μl/well) as the secondary antibody for the aptamer-FITC conjugates and FITC-mouse IgG isotype control. FITC Rat anti-mouse IgG1 (A85-1) (BD Pharmingen, San Diego, Calif., Cat#: 553443) was diluted in 1:100 in FACS Buffer as the secondary for the α-PSMA antibody. After centrifugation, the cell pellets were resuspended in 100 μl of the appropriate diluted secondary antibody, and incubated 10 minutes at room temperature. After incubation, 180 μl of FACS buffer was added to each well to quench the reaction, and cells were pelleted by centrifugation.
# A tertiary antibody which recognizes the Alexa Fluor® 488 goat anti-rabbit IgG was prepared to further amplify the Alexa Fluor signal. Alexa Fluor® 488 goat anti-rabbit IgG (H+ L) (Molecular Probes, Eugene, Oreg., Cat#: A11034) was diluted 1:100 in FACS buffer, and the pelleted cells were resupsended in 100 μl of the tertiary antibody and incubated for 10 minutes at room temperature. […]
# Cell samples were analyzed on a FACS Scan machine (Becton Dickinson, San Jose, Calif.) under the following parameters: FSC/SSC, FL-1/FSC, FL-3/FSC. The unstained and/or isotype controls were used to establish gating parameters, and the data was analyzed using Cell Quest Pro software version 5.1.1 (Becton Dickinson Immunocytometry Systems, San Jose, Calif.).
# Sequence of PSMA NAALADase activity (Q04609 with tags, fused parts or gaps limits assumed): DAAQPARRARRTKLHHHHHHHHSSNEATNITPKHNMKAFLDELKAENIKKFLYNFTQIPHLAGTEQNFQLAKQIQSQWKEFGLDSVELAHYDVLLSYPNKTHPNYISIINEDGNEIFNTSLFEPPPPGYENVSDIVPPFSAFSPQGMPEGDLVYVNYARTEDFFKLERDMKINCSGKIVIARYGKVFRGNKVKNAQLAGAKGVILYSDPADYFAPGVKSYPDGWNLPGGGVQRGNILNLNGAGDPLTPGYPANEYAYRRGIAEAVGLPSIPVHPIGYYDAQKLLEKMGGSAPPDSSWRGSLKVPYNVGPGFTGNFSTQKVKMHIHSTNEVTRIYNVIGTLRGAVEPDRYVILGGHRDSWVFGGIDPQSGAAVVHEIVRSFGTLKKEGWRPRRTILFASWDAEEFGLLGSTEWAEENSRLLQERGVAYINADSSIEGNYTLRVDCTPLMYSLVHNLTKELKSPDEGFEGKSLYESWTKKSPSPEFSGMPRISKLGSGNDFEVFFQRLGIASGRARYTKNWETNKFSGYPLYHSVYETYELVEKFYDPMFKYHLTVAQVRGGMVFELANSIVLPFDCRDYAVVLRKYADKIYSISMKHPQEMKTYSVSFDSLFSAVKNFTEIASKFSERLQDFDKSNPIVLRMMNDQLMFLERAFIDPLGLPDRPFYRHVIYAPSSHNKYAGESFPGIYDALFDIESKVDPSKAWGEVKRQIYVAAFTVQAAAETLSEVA
substance,measurement,setting,value
"GGAGGAfCfCGAAAAAGAfCfCfUGAfCfUfUfCfUAfUAfCfUAAGfUfCfUAfCGfUfUfCfCfUfCfCA (GGAGGACCGAAAAAGACCUGACUUCUAUACUAAGUCUACGUUCCUCCA; 2'-fluoro at 7, 8, 17, 18, 19, 22, 23, 24, 25, 26, 28, 30, 31, 35, 36, 37, 39, 41, 42, 43, 44, 45, 46, 47, other sugars and backbone not given here) [ARC591, 48-nt minimer of A9]",IC50,"PSMA NAALADase activity; read-out: apparent IC50, inhibition of NAALADase activity",6.7 nM
same,activity in the NAALADase inhibition assay,PSMA NAALADase activity; relative to parent,retained full functional activity
same,functional activity in the LNCaP FACS assay,LNCaP cells (PSMA+),retained full functional activity
